Data taken from ChEMBL document CHEMBL6078670, “Discovery of a potent and selective TRPC3 antagonist with neuroprotective effects” (Bioorg Med Chem, 2025).
Activity calls are given as the source filed them. The rule behind the calls is not given here.

Assays:
[1] = biological target: T1, Short transient receptor potential channel 3 (Homo sapiens) (UniProt Q13507); experiment: Antagonist activity at human TRPC3 expressed in HEK293 cells assessed as inhibition of carbachol-induced activity at 10 uM measured after 48 hrs by Whole-cell patch clamp electrophysiology relative to control; format: cell-based; details: filed as antagonist
T1 sequence (whole entry): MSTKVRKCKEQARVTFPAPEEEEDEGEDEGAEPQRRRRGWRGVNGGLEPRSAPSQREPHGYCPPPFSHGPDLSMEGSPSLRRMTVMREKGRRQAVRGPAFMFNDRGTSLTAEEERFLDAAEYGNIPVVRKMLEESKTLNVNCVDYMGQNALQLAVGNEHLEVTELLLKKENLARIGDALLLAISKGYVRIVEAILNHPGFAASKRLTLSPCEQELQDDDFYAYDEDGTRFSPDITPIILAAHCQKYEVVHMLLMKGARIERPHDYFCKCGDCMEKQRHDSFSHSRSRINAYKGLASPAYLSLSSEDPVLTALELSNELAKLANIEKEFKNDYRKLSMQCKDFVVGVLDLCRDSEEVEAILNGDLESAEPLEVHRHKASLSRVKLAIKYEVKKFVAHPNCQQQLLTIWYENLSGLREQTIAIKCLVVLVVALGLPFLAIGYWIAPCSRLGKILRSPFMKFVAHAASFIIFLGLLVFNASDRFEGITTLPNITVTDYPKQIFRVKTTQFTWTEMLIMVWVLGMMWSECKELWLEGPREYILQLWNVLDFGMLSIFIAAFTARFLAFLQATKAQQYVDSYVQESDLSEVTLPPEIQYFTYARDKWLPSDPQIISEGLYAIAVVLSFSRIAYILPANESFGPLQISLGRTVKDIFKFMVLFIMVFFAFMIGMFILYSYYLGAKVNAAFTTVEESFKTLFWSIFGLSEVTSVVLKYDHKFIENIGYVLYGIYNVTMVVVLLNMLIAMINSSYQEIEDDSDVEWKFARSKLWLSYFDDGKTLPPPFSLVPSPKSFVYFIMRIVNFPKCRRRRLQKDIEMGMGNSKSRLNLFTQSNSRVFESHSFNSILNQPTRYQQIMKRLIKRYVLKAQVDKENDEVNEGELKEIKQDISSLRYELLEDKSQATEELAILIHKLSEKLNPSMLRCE

[2] = biological target: Short transient receptor potential channel 1 (Mus musculus) (UniProt Q61056); experiment: Antagonist activity at mouse TRPC1 expressed in HEK293 cells assessed as inhibition of carbachol-induced activity at 10 uM measured after 48 hrs by Whole-cell patch clamp electrophysiology; format: cell-based
[3] = Metabolic stability in human liver microsomes assessed as intrinsic clearance measured up to 60 mins by LC-MS/MS analysis; format: ADME, Microsome; details: 1 h
[4] = Cytotoxicity against Sprague-Dawley rat primary hippocampal cells at 100 nM; format: toxicity, cell-based; details: hippocampal neurone, 0.1 µM
[5] = Metabolic stability in mouse liver microsomes assessed as half life measured up to 60 mins by LC-MS/MS analysis; format: ADME, Microsome; details: 1 h
[6] = test system: Hippocampal neurone; experiment: Rescuing beta-amyloid induced neuronal cell damage in Sprague-Dawley rat primary hippocampal cell culture (composed of 60% primary neuron, 20% microglia and 20% astrocyte) assessed as decrease in soluble oligomeric Abeta-containing media (7PA2 cells) induced microgliosis (Iba1) at 500 nM by immunostaining analysis; format: functional, cell-based
[7] = biological target: Cytochrome P450 3A4 (Homo sapiens, UniProt P08684); experiment: Inhibition of human liver microsomes CYP3A4-M measured after 10 mins incubation by LC-MS analysis; format: ADME, Microsome
[8] = biological target: T2, Short transient receptor potential channel 6 (Homo sapiens) (UniProt Q9Y210); experiment: Antagonist activity at human TRPC6 expressed in HEK293 cells assessed as inhibition of carbachol-induced activity at 10 uM measured after 48 hrs by Whole-cell patch clamp electrophysiology; format: cell-based
T2 sequence (whole entry): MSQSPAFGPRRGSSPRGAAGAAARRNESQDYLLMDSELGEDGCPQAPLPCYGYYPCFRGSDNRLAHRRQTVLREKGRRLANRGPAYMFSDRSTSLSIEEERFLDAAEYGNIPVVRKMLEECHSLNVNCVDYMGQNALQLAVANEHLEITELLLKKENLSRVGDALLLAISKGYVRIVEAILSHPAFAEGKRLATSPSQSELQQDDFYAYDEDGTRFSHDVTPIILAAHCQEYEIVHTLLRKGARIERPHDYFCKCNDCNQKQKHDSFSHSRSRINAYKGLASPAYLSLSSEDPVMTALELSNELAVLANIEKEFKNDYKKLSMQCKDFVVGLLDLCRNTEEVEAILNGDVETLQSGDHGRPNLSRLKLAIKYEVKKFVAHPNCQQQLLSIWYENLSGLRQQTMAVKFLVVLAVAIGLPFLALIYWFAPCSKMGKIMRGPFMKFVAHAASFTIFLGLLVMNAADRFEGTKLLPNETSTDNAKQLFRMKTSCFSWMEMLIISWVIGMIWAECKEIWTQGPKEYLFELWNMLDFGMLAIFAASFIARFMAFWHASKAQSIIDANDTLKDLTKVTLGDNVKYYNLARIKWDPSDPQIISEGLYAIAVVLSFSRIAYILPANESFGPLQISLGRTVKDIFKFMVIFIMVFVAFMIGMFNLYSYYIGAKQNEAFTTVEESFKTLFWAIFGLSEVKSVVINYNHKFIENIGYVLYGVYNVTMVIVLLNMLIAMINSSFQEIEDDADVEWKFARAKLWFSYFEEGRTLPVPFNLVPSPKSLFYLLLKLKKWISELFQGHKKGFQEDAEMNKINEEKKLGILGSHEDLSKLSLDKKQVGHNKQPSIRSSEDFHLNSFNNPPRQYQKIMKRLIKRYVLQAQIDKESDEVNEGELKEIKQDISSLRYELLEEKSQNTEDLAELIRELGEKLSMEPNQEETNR

Sequence of Cytochrome P450 3A4 (P08684 whole entry): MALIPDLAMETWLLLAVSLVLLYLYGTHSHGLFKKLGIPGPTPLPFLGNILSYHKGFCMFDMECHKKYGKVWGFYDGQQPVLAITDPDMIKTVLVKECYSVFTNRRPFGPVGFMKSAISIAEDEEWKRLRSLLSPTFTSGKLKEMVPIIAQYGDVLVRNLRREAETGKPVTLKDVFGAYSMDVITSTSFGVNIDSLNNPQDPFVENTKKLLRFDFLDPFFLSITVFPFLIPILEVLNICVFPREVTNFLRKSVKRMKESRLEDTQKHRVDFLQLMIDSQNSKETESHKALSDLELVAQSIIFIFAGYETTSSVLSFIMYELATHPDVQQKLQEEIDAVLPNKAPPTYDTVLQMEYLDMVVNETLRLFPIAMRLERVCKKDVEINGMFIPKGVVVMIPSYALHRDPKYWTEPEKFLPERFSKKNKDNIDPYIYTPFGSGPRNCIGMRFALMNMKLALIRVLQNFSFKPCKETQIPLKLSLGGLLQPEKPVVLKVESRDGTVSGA
Sequence of Short transient receptor potential channel 1 (Mus musculus) (Q61056 whole entry): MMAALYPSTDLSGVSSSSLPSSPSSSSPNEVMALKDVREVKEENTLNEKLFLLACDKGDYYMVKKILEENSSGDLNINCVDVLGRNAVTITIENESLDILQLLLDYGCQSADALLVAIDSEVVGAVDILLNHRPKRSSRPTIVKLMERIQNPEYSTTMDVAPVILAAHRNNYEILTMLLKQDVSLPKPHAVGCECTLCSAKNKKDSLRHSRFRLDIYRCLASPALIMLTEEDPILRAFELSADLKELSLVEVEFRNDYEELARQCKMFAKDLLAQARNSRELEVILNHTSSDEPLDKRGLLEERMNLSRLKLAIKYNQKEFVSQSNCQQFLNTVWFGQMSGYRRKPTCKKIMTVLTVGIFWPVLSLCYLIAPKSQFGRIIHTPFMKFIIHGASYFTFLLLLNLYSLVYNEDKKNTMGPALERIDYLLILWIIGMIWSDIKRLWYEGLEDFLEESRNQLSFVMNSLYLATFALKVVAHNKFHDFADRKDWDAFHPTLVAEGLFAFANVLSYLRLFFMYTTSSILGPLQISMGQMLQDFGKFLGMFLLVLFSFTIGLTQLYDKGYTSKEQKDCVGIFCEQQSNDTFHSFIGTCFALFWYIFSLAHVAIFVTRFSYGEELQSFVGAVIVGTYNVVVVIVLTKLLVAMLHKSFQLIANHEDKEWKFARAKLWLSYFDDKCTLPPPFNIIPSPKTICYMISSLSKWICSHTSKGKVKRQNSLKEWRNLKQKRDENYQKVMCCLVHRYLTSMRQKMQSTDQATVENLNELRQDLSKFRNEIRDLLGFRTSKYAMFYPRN

- inhibition [1]: > 97%
- Activity [2]: inactive
- CLH [3]: 3.73 µL/min/mg
- t1/2 [5]: 21 min
- IC50 [7]: > 50 µM
- Activity [8]: inactive
Structure (SMILES): CCNCc1cnn(-c2ccc(-n3ccc(Cl)c(Cl)c3=O)cc2)c1C(F)(F)F
- Activity [4]: Non-toxic
- Activity [6]: Active
